# In ChEMBL document CHEMBL1201862, “PubChem BioAssay data set” (2004):
#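 A five-concentration, 48-hour dose response in 96-well plates underlies each endpoint, interpolated linearly between surrounding concentrations. GI50 is the concentration that inhibits growth by half.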 Calls of active or inactive are those of the source. No stated cut-off is given here; in the data, active = GI50 up to about 1.1 µM and inactive = higher.
# Key:
# Assay in all cases: growth of human tumour cells (NCI), 48 h
# 786-0 = test system: 786-0
# A498 = test system: A498
# A549 = test system: A549
# ACHN = test system: ACHN
# BT-549 = test system: BT-549
# CAKI-1 = test system: CAKI-1
# CCRF-CEM = test system: CCRF-CEM
# COLO 205 = test system: COLO 205
# DU-145 = test system: DU-145
# EKVX = test system: EKVX
# HCC 2998 = test system: HCC 2998
# HCT-116 = test system: HCT-116
# HCT-15 = test system: HCT-15
# HL-60 = test system: HL-60
# HOP-62 = test system: HOP-62
# HOP-92 = test system: HOP-92
# HT-29 = test system: HT-29
# IGROV-1 = test system: IGROV-1
# K562 = test system: K562
# KM12 = test system: KM12
# LOX IMVI = test system: LOX IMVI
# MCF7 = test system: MCF7
# MDA-MB-231 = test system: MDA-MB-231
# MDA-MB-435 = test system: MDA-MB-435
# MDA-N = test system: MDA-N
# MOLT-4 = test system: MOLT-4
# Malme-3M = test system: Malme-3M
# NCI-H226 = test system: NCI-H226
# NCI-H23 = test system: NCI-H23
# NCI-H460 = test system: NCI-H460
# NCI-H522 = test system: NCI-H522
# NCI/ADR-RES = test system: NCI/ADR-RES
# OVCAR-3 = test system: OVCAR-3
# OVCAR-4 = test system: OVCAR-4
# OVCAR-5 = test system: OVCAR-5
# OVCAR-8 = test system: OVCAR-8
# PC-3 = test system: PC-3
# RXF 393 = test system: RXF 393
# SF-268 = test system: SF-268
# SF-295 = test system: SF-295
# SK-MEL-28 = test system: SK-MEL-28
# SK-MEL-2 = test system: SK-MEL-2
# SK-MEL-5 = test system: SK-MEL-5
# SN12C = test system: SN12C
# SNB-19 = test system: SNB-19
# SNB-75 = test system: SNB-75
# SR = test system: SR
# SW-620 = test system: SW-620
# T47D = test system: T47D
# TK-10 = test system: TK-10
# U-251 = test system: U-251
# UACC-257 = test system: UACC-257
# UACC-62 = test system: UACC-62
# UO-31 = test system: UO-31
# M14 = test system: M14
# RPMI-8226 = test system: RPMI-8226
# SF-539 = test system: SF-539
# SK-OV-3 = test system: SK-OV-3
smiles,measurement,setting,value
CCOC(=O)C1C(=O)CC(C)(O)C(C(=O)OCC)C1c1ccc(O)c(OC)c1 (configuration not stated),GI50,786-0,> 100 µM (inactive)
same,GI50,A498,> 100 µM (inactive)
same,GI50,A549,> 100 µM (inactive)
same,GI50,ACHN,> 100 µM (inactive)
same,GI50,BT-549,> 100 µM (inactive)
same,GI50,CAKI-1,> 100 µM (inactive)
same,GI50,CCRF-CEM,> 100 µM (inactive)
same,GI50,COLO 205,> 100 µM (inactive)
same,GI50,DU-145,> 100 µM (inactive)
same,GI50,EKVX,> 100 µM (inactive)
same,GI50,HCC 2998,> 100 µM (inactive)
same,GI50,HCT-116,> 100 µM (inactive)
same,GI50,HCT-15,> 100 µM
same,GI50,HL-60,> 100 µM (inactive)
same,GI50,HOP-62,> 100 µM (inactive)
same,GI50,HOP-92,> 100 µM (inactive)
same,GI50,HT-29,> 100 µM (inactive)
same,GI50,IGROV-1,> 100 µM (inactive)
same,GI50,K562,> 100 µM (inactive)
same,GI50,KM12,> 100 µM (inactive)
same,GI50,LOX IMVI,> 100 µM (inactive)
same,GI50,MCF7,> 100 µM (inactive)
same,GI50,MDA-MB-231,> 100 µM (inactive)
same,GI50,MDA-MB-435,> 100 µM (inactive)
same,GI50,MDA-N,> 100 µM (inactive)
same,GI50,MOLT-4,> 100 µM (inactive)
same,GI50,Malme-3M,> 100 µM (inactive)
same,GI50,NCI-H226,> 100 µM (inactive)
same,GI50,NCI-H23,> 100 µM (inactive)
same,GI50,NCI-H460,> 100 µM (inactive)
same,GI50,NCI-H522,> 100 µM (inactive)
same,GI50,NCI/ADR-RES,> 100 µM (inactive)
same,GI50,OVCAR-3,> 100 µM (inactive)
same,GI50,OVCAR-4,> 100 µM (inactive)
same,GI50,OVCAR-5,> 100 µM (inactive)
same,GI50,OVCAR-8,> 100 µM (inactive)
same,GI50,PC-3,> 100 µM (inactive)
same,GI50,RXF 393,> 100 µM (inactive)
same,GI50,SF-268,> 100 µM (inactive)
same,GI50,SF-295,> 100 µM (inactive)
same,GI50,SK-MEL-28,> 100 µM (inactive)
same,GI50,SK-MEL-2,> 100 µM (inactive)
same,GI50,SK-MEL-5,> 100 µM (inactive)
same,GI50,SN12C,> 100 µM (inactive)
same,GI50,SNB-19,> 100 µM (inactive)
same,GI50,SNB-75,> 100 µM (inactive)
same,GI50,SR,> 100 µM (inactive)
same,GI50,SW-620,> 100 µM (inactive)
same,GI50,T47D,> 100 µM (inactive)
same,GI50,TK-10,> 100 µM (inactive)
same,GI50,U-251,> 100 µM (inactive)
same,GI50,UACC-257,> 100 µM (inactive)
same,GI50,UACC-62,> 100 µM (inactive)
same,GI50,UO-31,> 100 µM (inactive)
Cc1ccc(-c2cc(-c3ccccc3)nc(N)n2)c(O)c1,GI50,786-0,> 58.1 µM (inactive)
same,GI50,A498,> 90.6 µM (inactive)
same,GI50,A549,> 90.4 µM (inactive)
same,GI50,ACHN,> 100 µM (inactive)
same,GI50,BT-549,> 100 µM (inactive)
same,GI50,CAKI-1,> 74.6 µM (inactive)
same,GI50,CCRF-CEM,3.4 µM (inactive)
same,GI50,COLO 205,> 100 µM (inactive)
same,GI50,DU-145,> 79.4 µM (inactive)
same,GI50,HCC 2998,> 100 µM (inactive)
same,GI50,HCT-116,5.48 µM (inactive)
same,GI50,HCT-15,> 22.9 µM
same,GI50,HL-60,2.22 µM (inactive)
same,GI50,HOP-62,27.6 µM (inactive)
same,GI50,HOP-92,> 64.1 µM (inactive)
same,GI50,HT-29,> 100 µM (inactive)
same,GI50,K562,2.09 µM (inactive)
same,GI50,KM12,7.46 µM (inactive)
same,GI50,M14,> 100 µM (inactive)
same,GI50,MCF7,58.1 µM (inactive)
same,GI50,MDA-MB-231,> 100 µM (inactive)
same,GI50,MDA-MB-435,2.86 µM (inactive)
same,GI50,MDA-N,4.78 µM (inactive)
same,GI50,MOLT-4,3.52 µM (inactive)
same,GI50,Malme-3M,> 100 µM (inactive)
same,GI50,NCI-H23,> 100 µM (inactive)
same,GI50,NCI-H460,> 27 µM (inactive)
same,GI50,NCI-H522,5.4 µM (inactive)
same,GI50,NCI/ADR-RES,> 100 µM (inactive)
same,GI50,OVCAR-3,> 59.2 µM (inactive)
same,GI50,OVCAR-4,> 100 µM (inactive)
same,GI50,OVCAR-5,> 100 µM (inactive)
same,GI50,OVCAR-8,62.4 µM (inactive)
same,GI50,PC-3,> 32.9 µM (inactive)
same,GI50,RPMI-8226,3.06 µM (inactive)
same,GI50,RXF 393,> 100 µM (inactive)
same,GI50,SF-268,> 100 µM (inactive)
same,GI50,SF-295,39.4 µM (inactive)
same,GI50,SF-539,> 60.7 µM (inactive)
same,GI50,SK-MEL-28,> 100 µM (inactive)
same,GI50,SK-MEL-2,> 28.9 µM (inactive)
same,GI50,SK-MEL-5,6.46 µM (inactive)
same,GI50,SK-OV-3,> 75.7 µM (inactive)
same,GI50,SN12C,> 100 µM (inactive)
same,GI50,SNB-19,32.4 µM (inactive)
same,GI50,SR,0.227 µM (active)
same,GI50,SW-620,> 22.7 µM (inactive)
same,GI50,T47D,> 100 µM (inactive)
same,GI50,TK-10,> 60.1 µM (inactive)
same,GI50,U-251,42.1 µM (inactive)
same,GI50,UACC-257,> 100 µM (inactive)
same,GI50,UACC-62,> 78.2 µM (inactive)
same,GI50,UO-31,> 100 µM (inactive)
